{"source": "paper PMC6445193", "about": "(Journal of Enzyme Inhibition and Medicinal Chemistry, 2017)", "key": {"[1]": {"target": "T1, human S-adenosyl-homocysteine hydrolase (rSAHH) (Homo sapiens, UniProt P23526)", "T1 sequence (P23526 whole entry)": "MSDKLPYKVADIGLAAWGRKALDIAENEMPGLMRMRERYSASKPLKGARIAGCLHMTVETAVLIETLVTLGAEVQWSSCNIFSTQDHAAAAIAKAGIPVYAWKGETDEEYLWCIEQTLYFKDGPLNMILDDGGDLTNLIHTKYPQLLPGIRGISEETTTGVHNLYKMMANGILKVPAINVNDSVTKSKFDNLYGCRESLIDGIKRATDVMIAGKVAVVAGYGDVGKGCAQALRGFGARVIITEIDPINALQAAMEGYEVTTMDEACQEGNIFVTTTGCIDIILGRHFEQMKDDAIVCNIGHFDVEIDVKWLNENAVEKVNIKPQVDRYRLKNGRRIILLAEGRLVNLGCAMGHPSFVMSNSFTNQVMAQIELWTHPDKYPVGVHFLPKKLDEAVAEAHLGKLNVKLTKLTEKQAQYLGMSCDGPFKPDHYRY", "test": "SAHH inhibition, IC50 determination with recombinant SAHH (hydrolysis of SAH, Hcy determined with DTNB)", "type": "biochemical", "experimental": "The activity of SAHH was expressed in units (U), which were defined as 1 μmol of SAH catalyzed by the enzyme per minute. Specific enzymatic activities (aspec) were calculated through the division of the enzymatic activities by the total protein amount used per assay and are expressed in U/mg. […] All of the values shown correspond to the mean values of at least three independent experiments, each of which was conducted in duplicate and all of the calculations were performed using Origin version 8.5 software and GraphPad Prism 5.\nStock solution of compounds (1 mM) for enzyme inhibition was prepared in DMSO. Both enzymes and substrates are diluted in Tris-HCl (pH = 6.5) to specified concentration when used for IC50 determination.\nSAH is hydrolysed by SAHH into Hcy and adenosine. And Hcy can be directly determined using Ellman reagent (DTNB)[17]."}, "[2]": {"parameters": "method as in PMID 24813734", "details": "long term exposure; cited from earlier work"}, "[3]": {"system": "SAHH", "parameters": "method as in PMID 24813734", "details": "data from literature; cited from earlier work"}, "[4]": {"system": "brain homocysteine", "parameters": "method as in PMID 24813734", "details": "reported by Converso; cited from earlier work"}, "[5]": {"target": "T1, human S-adenosyl-homocysteine hydrolase (rSAHH)", "test": "Enzyme kinetics of SAHH-catalyzed hydrolysis of SAH", "type": "biochemical", "experimental": "The activity of SAHH was expressed in units (U), which were defined as 1 μmol of SAH catalyzed by the enzyme per minute. Specific enzymatic activities (aspec) were calculated through the division of the enzymatic activities by the total protein amount used per assay and are expressed in U/mg. SAHH enzyme reacted with the SAH at different temperature and different pH, in order to identify its optimal reaction conditions. All of the values shown correspond to the mean values of at least three independent experiments, each of which was conducted in duplicate and all of the calculations were performed using Origin version 8.5 software and GraphPad Prism 5.\nThe enzyme kinetic parameters (Km and Kcat) were calculated by least-squares fitting of the activity data at various substrate concentrations to the Michaelis–Menten equation with Origin version 8.5 software (Microcal Software, Northampton, MA)."}, "[6]": {"details": "recombinant human SAHH, Tris-HCl pH 6.5, read-out: SAHH IC50"}}, "note": "pIC50: −log10 of the molar value. Read-outs that look alike come from different tables or passages of the source."}
{"smiles": "CCOC(=O)c1ccc(N)cc1", "note": "[Compound 10]", "values": [{"measurement": "pIC50", "setting": "[1]; [6]", "result": 5.85}]}
{"smiles": "O=C(O)/C=C/c1ccc(Cl)cc1", "note": "[Compound 12]", "values": [{"measurement": "pIC50", "setting": "[1]; [6]", "result": 6.24}]}
{"smiles": "COc1cc(C=CCO)ccc1O", "note": "[Compound 13, 4-(3-hydroxyprop-1-en-1-yl)-2-methoxyphenol]", "values": [{"measurement": "pIC50", "setting": "[1]; [6]", "result": 7.47}]}
{"smiles": "COc1ccc(/C=C/C(=O)O)cc1", "note": "[Compound 11]", "values": [{"measurement": "pIC50", "setting": "[1]; [6]", "result": 6.01}]}
{"smiles": "COC(=O)/C=C/c1ccc(CBr)cc1", "note": "[Compound 4]", "values": [{"measurement": "pIC50", "setting": "[1]; [6]", "result": 6.09}]}
{"smiles": "COc1cc(C=O)ccc1O", "note": "[Compound 5]", "values": [{"measurement": "pIC50", "setting": "[1]; [6]", "result": 5.96}]}
{"smiles": "Oc1ccc(Cl)c(O)c1", "note": "[Compound 7]", "values": [{"measurement": "pIC50", "setting": "[1]", "result": 5.95}]}
{"smiles": "COc1ccc(N)cc1", "note": "[Compound 9]", "values": [{"measurement": "pIC50", "setting": "[1]; [6]", "result": 6.05}]}
{"smiles": "COc1ccc(C=O)cc1", "note": "[Compound 2]", "values": [{"measurement": "pIC50", "setting": "[1]; [6]", "result": 5.67}]}
{"smiles": "Nc1ncnc2c1ncn2[C@@H]1C=C(CO)[C@@H](O)[C@H]1O", "note": "[NepA, Neplanocin A]", "values": [{"measurement": "cytotoxicity", "setting": "[2]", "result": "cytotoxic upon long term exposure"}, {"measurement": "pIC50", "setting": "[3]", "result": 8.82}]}
{"smiles": "Nc1ncc(F)c2c1ncn2[C@@H]1CC[C@@H](O)[C@H]1O", "note": "[20 ^*]", "values": [{"measurement": "effect on brain homocysteine", "setting": "[4]", "result": "reduce brain homocysteine in a dose-dependent manner"}, {"measurement": "pIC50", "setting": "[3]", "result": 7.40}]}
{"smiles": "O=C(OO)c1ccc(Cl)cc1", "note": "[Compound 6]", "values": [{"measurement": "pIC50", "setting": "[1]", "result": 6.25}]}
{"smiles": "Fc1ccc(CBr)c(F)c1", "note": "[Compound 3]", "values": [{"measurement": "pIC50", "setting": "[1]", "result": 6.04}]}
{"smiles": "Nc1ncnc2c1ncn2[C@@H]1O[C@H](CSCC[C@H](N)C(=O)O)[C@@H](O)[C@H]1O", "note": "[SAH, S-adenosylhomocysteine]", "values": [{"measurement": "Km", "setting": "[5]; read-out: apparent Km of the hydrolytic reaction, substrate SAH", "result": "~21.8", "unit": "µM"}, {"measurement": "Vmax", "setting": "[5]; substrate SAH", "result": 22.9, "unit": "µM/min"}]}
{"smiles": "O=C(O)c1ccc(F)cc1", "note": "[Compound 8]", "values": [{"measurement": "pIC50", "setting": "[1]; [6]", "result": 6.17}]}
{"smiles": "On1nnc2ccccc21", "note": "[Compound 1]", "values": [{"measurement": "pIC50", "setting": "[1]", "result": 5.90}]}
